Source: ChEMBL document CHEMBL3507680, “University of Dundee, Gates Library screen for HepG2 cell viability”

Experiment: Human HepG2 cell viability assay in 384 well format
Assay type: toxicity, cell-based
Set-up: dose 125 nL, time 70.5 hour; cytotoxicity at 70.5 h: concentration not given beside the values
Details: HepG2 cells, read-out: Inhibition

Compound	cytotoxicity at 70.5 h
CCOc1ccccc1OCCN(C)Cc1nccn1C	-5.37%
CC(=O)N1CCC(C(=O)NC2CC(C)(C)Oc3cc(C)ccc32)CC1 (stereo unspecified)	12.8%
COCCc1noc(CNC(=O)C2CC(=O)N(C(C)(C)C)C2)n1 (stereo unspecified)	-7.37%
Cc1cc(C2CCC2)nc(N(C)CCc2ccccn2)n1	-5.51%
O=C1OCCN1CC(=O)N1C[C@H]2CC[C@@H]1CN(Cc1cscn1)C2	27.8%
Cc1cc2n(n1)CCN(c1nc(N)nc3c1CCNCC3)C2	-13.6%
Cc1ccnc(NCCNC(=O)CCNC(=O)c2ccccc2F)c1	1.01%
CCCN(CCc1ccccc1)c1ncnc2oc(C)nc12	-2.57%
Cc1cccnc1CN1CCN(C(=O)CCn2ccccc2=O)CC1	0.0273%
CNc1nc(C(=O)N2CCCN(c3ccnc(C)c3)CC2)cs1	-5.86%
COCCN(Cc1sccc1C)c1nc(C)nc2sccc12	-3.07%
COc1nc2c(cc1C(=O)N(C)Cc1noc3c1CCCC3)CCC2	-0.83%
CC(C1CCN(Cc2cnn(C)c2C2CC2)CC1)N1CCN(C)CC1 (stereo unspecified)	-3.33%
CNc1cc(C)nc(N2CCN(Cc3ccccc3)CC(O)C2)n1 (stereo unspecified)	-0.369%
c1nc2c(c(NC3COC4(CCCC4)C3)n1)CCNCC2 (stereo unspecified)	-5.17%
CC(C)(N)C(=O)N1CCCC(C(=O)c2ccc(C(C)(C)C)cc2)C1 (stereo unspecified)	-3.3%
Cc1ccc(-c2ncc(C(=O)N3CCCN4CCC[C@H]4C3)c(O)n2)cc1	5.02%
COc1ccc(-c2cccc(-c3ccn(CCN(C)C)n3)c2)nn1	-3.58%
N[C@H]1CC[C@@H](n2cc(C(=O)NC3COc4ccccc43)nn2)CC1 (stereo partly specified)	-0.524%

Compound	cytotoxicity at 70.5 h
c1cncc(Cc2nnc3n2CCN(CC2CCOC2)CC3)c1 (stereo unspecified)	-10.7%
COCCN(C)C[C@H]1C[C@@H](CO)CN(C(=O)c2ccn(C)c(=O)c2)C1	-8.04%
c1cncc(OCc2nc(C3CC3)nn2-c2ccc3c(c2)OCCO3)c1	14.2%
C[C@@H]1CN(C(=O)CCc2nncn2C)CC[C@@]1(O)C1CCC1	-5.47%
N#Cc1ccnc(NCc2cc3n(n2)CCCN(C(=O)C2CCC2)C3)c1	1.71%
CCOCCC(=O)N1C[C@H]2CC[C@@H]1CN(c1ncccn1)C2	-5.84%
CC(C)N1CCN(C(=O)c2csc3nc(-c4ccc(Cl)cc4)cn23)CC1	-16.3%
CCN(Cc1ccncc1)Cc1cn(-c2ccccc2)nn1	-10.2%
Cc1ccc(Cl)c(CN2CCC(c3nccn3C(C)C)CC2)c1F	-1.48%
Cc1ccccc1N1CCCN(CC2(O)CCCNC2)CC1 (stereo unspecified)	20.3%
OCC1COCCN(c2ncccc2C(F)(F)F)C1 (stereo unspecified)	3.25%
COc1cccc2c1OCC(C(=O)N1CCC(N3CCSCC3)CC1)C2 (stereo unspecified)	4.8%
O=C(c1ccc2c(c1)CCO2)N1CCN(c2ccc(Cl)cn2)CC1	-0.811%
Cc1cc(-c2cccc(-c3ccn(CCCO)n3)c2)nc(N(C)C)n1	-5.08%
CN1CCN([C@H]2CCN(C(=O)c3cc(Cl)cn3C)C[C@H]2CCCO)CC1	-14.3%
Cc1cccc(-c2nccn2C2CC(=O)N(C(C)C)C2)n1 (stereo unspecified)	0.181%
CCN1CCCC1CN(Cc1ccoc1)CC1CCN(CCOC)CC1 (stereo unspecified)	-3.24%
CN(CCO)Cc1nnc(C2CCN(C(=O)c3ccccc3)CC2)n1C	0.129%
Cc1cccc(CN2CCN(C(=O)[C@@H]3CSCN3C)CC2)c1	-13.3%

Compound	cytotoxicity at 70.5 h
CC(C)CCC(=O)N1CCCC2(CCN(Cc3ccccc3C#N)C2)C1 (stereo unspecified)	-5.13%
O=S1(=O)COCCN1Cc1ccc(F)cc1Cl	-9.29%
Cc1cccc(C)c1-c1cc(NCCO)nc2[nH]ccc12	-11.1%
O=C(N[C@@H]1CCN(c2nc3ccccc3o2)C[C@H]1O)c1cnccn1	-9.1%
Cc1nnc(CN2CCN(C)C3(CCNC(=O)CC3)C2)s1 (stereo unspecified)	2.04%
Cc1cc(=O)[nH]c(NCCNC(=O)CN2CCCCCC2)n1	15.9%
O=C(NC1CC1)C1CN(c2nc3ccccc3s2)CCN1 (stereo unspecified)	-7.94%
CC(C)CCn1c(=O)n(CCn2cccc2)c2cc(C(=O)O)cnc21	-7.02%
COCc1cc(N(C)CCc2c(C)n[nH]c2C)ncn1	5.69%
COc1ccnc(CNc2nc(C)nc(C)c2C)c1	3%
CSCC[C@H](N)C(=O)N1CC(Oc2ccccc2C)C1	-3.44%
CCN1CC(C(=O)NCCn2cccc2)CC1=O (stereo unspecified)	-4.38%
Cc1cnn(C(C)C2CC2)c1NC(=O)c1ccc(Cn2cnnn2)cc1 (stereo unspecified)	-10.2%
O=c1cnc2ccccc2n1CCCn1ccnc1	-16.2%
O=C(COc1cccnc1)NCc1nncn1C1CCCCC1	-5.77%
COCCn1ccnc1C1CCCN(C(=O)c2ccncc2F)C1 (stereo unspecified)	11%
Cc1cnn(C2(C(=O)O)CCN(c3ccncc3F)CC2)c1	-5.87%
CCn1ncc(-c2nc3c[nH]n(CC)c-3n2)c1C	0.803%
